Test results as given in ChEMBL document CHEMBL1144549, “Preparation of secolycorines against acetylcholinesterase” (Bioorg Med Chem, 2007).

Molecular target: Acetylcholinesterase (Electrophorus electricus, UniProt O42275)
Experiment: Inhibition of eel AChE

Acetylcholinesterase, sequence (O42275 whole entry): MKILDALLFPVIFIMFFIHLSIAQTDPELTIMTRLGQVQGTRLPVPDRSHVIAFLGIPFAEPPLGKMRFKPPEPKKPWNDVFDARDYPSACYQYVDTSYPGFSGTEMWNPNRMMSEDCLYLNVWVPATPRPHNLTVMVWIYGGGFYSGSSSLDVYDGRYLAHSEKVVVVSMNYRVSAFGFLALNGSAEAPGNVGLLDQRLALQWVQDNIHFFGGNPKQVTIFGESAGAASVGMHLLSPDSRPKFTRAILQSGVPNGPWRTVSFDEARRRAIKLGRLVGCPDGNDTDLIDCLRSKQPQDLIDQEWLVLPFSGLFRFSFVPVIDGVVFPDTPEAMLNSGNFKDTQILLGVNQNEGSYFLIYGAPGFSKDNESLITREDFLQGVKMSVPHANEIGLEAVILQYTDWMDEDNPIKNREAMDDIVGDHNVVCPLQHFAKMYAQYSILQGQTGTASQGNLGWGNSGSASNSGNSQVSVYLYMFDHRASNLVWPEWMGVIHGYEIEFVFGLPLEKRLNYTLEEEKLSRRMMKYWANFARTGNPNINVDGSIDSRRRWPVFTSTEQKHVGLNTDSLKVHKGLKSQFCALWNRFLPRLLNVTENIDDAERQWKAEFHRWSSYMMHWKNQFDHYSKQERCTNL

C=Cc1cccc2c1N(CCCCCC)Cc1cc3c(cc1-2)OCO3
IC50: < 5 µM

C=Cc1cccc2c1N(CCCC)Cc1cc3c(cc1-2)OCO3
IC50: 2.66 µM

C=Cc1cccc2c1N(CCCCC)Cc1cc3c(cc1-2)OCO3
IC50: < 5 µM

CCc1cccc2c1N(C)Cc1cc3c(cc1-2)OCO3
IC50: 3 µM

C=Cc1cccc2c1N(C)Cc1cc3c(cc1-2)OCO3
IC50: 2.89 µM

C=Cc1cccc2c1N(CCC)Cc1cc3c(cc1-2)OCO3
IC50: 10.6 µM

CCCN1Cc2cc3c(cc2-c2cccc(CC)c21)OCO3
IC50: 9.98 µM

CCCCN1Cc2cc3c(cc2-c2cccc(CC)c21)OCO3
IC50: 5.44 µM

CCCCCN1Cc2cc3c(cc2-c2cccc(CC)c21)OCO3
IC50: < 5 µM

CCc1cccc2c1N(CC)Cc1cc3c(cc1-2)OCO3
IC50: 8.82 µM

CCCCCCN1Cc2cc3c(cc2-c2cccc(CC)c21)OCO3
IC50: < 5 µM

C=Cc1cccc2c1N(CC)Cc1cc3c(cc1-2)OCO3
IC50: 8.35 µM
